Laboratory results: patent publication US20240400579A1, “SPIROCYCLIC MODULATORS OF CHOLESTEROL BIOSYNTHESIS AND THEIR USE FOR PROMOTING REMYELINATION” (GENENTECH, INC., priority 2021, published 2024)

Tests used:
[1] = system: zymostenol accumulation in EpiSC-derived OPCs (EBP); test: GC/MS-based sterol profiling, zymostenol accumulation; type: cell-based, mouse; conditions: Mus musculus, 24 h, 8 doses from 0.15 nM to 333 nM, read-out: mZymo GCMS EC50
Outline: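 EpiSC-derived mouse OPCs plated at 100,000 cells/well in N2B27 without growth factors and treated 24 h. Sterols extracted, silylated with BSTFA and measured by GC/MS (EI, full scan), quantified against cholesterol-d7. Zymostenol normalized to levels after 24 h with 100 nM positive control reference.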

[2] = target: human emopamil binding protein and human 7-dehydrocholesterol reductase co-expressing cell membrane (Homo sapiens (Human), UniProt Q15125); test: hEBP-DHCR7 radioligand filtration binding assay with [3H]-Compound 118A*; conditions: radioligand [3H]-Compound 118A*; HEK293 membrane co-expressing hEBP and DHCR7
Outline: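 HEK293 membranes transiently co-expressing hEBP and hDHCR7 (10 μg/well) were incubated with [3H]-Compound 118A* (added at 25 nM) and compounds (8 doses, final 0.06–5000 nM, n=2) for 3 h at 22 °C. Bound radioactivity was read after PEI-treated GF/B filtration. IC50 came from a Hill fit of % inhibition and was converted to Ki.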

human EBP = human EBP (Homo sapiens (Human), UniProt Q15125); test: Competition binding assay (SPA) to determine compound affinity to EBP; conditions: radioligand [3H]-Ifenprodil 10 nM; Ki=IC50/(1+[L]/Kd); HEK293 membrane; read-out: hEBP SPA Ki
Experimental: Membrane preparation: To examine compound binding affinity to EBP, human EBP was overexpressed in human embryonic kidney 293 cells. Cell pellet was lysed in 10 times weight binding buffer (50 mM Tris, 5 mM MgCl2, 0.1 mM EDTA, 1× protease inhibitor cocktail, pH 7.5) on ice by using a dounce homogenizer. The solution was centrifuged at 25,000 g for 50 min at 4° C. The membrane pellet was re-suspended in binding buffer and run through a 25 5/8 gauge needle. After checking the concentration by Bradford assay, the whole cell membrane solution was adjusted to 20 mg/mL and stored at −80° C.
This binding solution was centrifuged at 400 g for 5 minutes to collect the bead/membrane mixture. After re-suspending the pellet in binding buffer at the same calculated volume with 0.01% BSA (Sigma A1933), the bead/membrane mixture was added in 384-well low-binding surface plate (PerkinElmer Cat #6057480) at 25 i/well. Radioligand at different concentrations with and without the non-radio-labeled same ligand 5 uM (for nonspecific and total signal, respectively) was added to bring final volume to 50 i/well with DMSO concentration at 0.1%. At equilibrium (3 hours after ligand addition), radiometric signal CPM was counted by using a Microbeta2 microplate counter (Perkinelmer).
Competition binding assay to determine compound affinity: The same conditions of the radioligand Kd study were used for compound single dose percentage inhibition and equilibrium dissociation constant Ki examinations, except 50 nL compound DMSO stock was pre-added in 384-well low-binding surface plate (PerkinElmer Cat #6057480) by Echo 550 (Labcyte) to reach the final concentration for single dose test at 1 uM, and dose response test from 0.06 nM to 5 uM (8 dose, 5 times dilution). A pre-incubated bead/membrane mixture was added in compound plate at 0.3 mg beads and […] membrane per well. […] At equilibrium (3 hours after ligand addition), radiometric signal was counted as described above. The percentage inhibition of compound at each testing concentration was calculated by normalizing each condition's CPM readout to full block (5 uM non-radiolabeled ligand) and non-block (DMSO) control conditions. Compound binding inhibition IC50 was determined by nonlinear regression fitting of percentage inhibition plot against compound concentration. Compound Ki was calculated from the equation Ki=IC50/(1+[L]/Kd), which [L] was radioligand concentration used in assay. All tests had N bigger or equal to 2.

EpiSC-derived OPCs = test: In vitro phenotypic screening of OPCs, MBP high-content imaging; type: cell-based, mouse; conditions: Mus musculus, 72 h, percentage of MBP+ oligodendrocytes; 3 days; 0.5 nM to 1000 nM; read-out: mOPC EC50
Outline: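 Mouse EpiSC-derived OPCs seeded without growth factors and exposed 3 days at 37° C. to 8-point doses, 1000 nM to 0.5 nM final. Fixed cells stained for MBP and DAPI; high-content imaging gave percentage MBP+ oligodendrocytes, with EC50 from Hill-equation fit.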

human EBP, sequence (Q15125 whole entry): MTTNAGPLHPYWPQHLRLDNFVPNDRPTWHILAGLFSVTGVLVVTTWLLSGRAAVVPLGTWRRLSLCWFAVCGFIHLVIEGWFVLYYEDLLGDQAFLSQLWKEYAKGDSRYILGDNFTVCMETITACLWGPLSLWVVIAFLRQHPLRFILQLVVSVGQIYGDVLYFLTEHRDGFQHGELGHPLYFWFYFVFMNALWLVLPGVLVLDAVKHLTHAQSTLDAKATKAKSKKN
human emopamil binding protein and human 7-dehydrocholesterol reductase co-expressing cell membrane, sequence (Q15125 whole entry): as above

| SMILES | EC50 [1] [nM] | Ki [2] [nM] | Ki (human EBP) [nM] | EC50 (EpiSC-derived OPCs) [nM] |
| --- | --- | --- | --- | --- |
| O=S1(=O)CC2(CCN(CC(F)Cc3ccc(C(F)(F)F)cc3)C2)C1 (racemic) [Example 142, (S)-6-(2-Fluoro-3-(4-(trifluoromethyl)phenyl)propyl)-2-thia-6-azaspiro[3.4]octane 2,2-dioxide and (R)-6-(2-fluoro-3-(4-(trifluoromethyl)phenyl)propyl)-2-thia-6-azaspiro[3.4]octane 2,2-dioxide] | 14 | 16.1 | 35 | – |
| CC(Cc1cc(C(F)(F)F)nn1C(C)C)CN1CCC2(C1)CS(=O)(=O)C2 (racemic) [Example 155, (S)-6-(3-(1-Isopropyl-3-(trifluoromethyl)-1H-pyrazol-5-yl)-2-methylpropyl)-2-thia-6-azaspiro[3.4]octane 2,2-dioxide and (R)-6-(3-(1-isopropyl-3-(trifluoromethyl)-1H-pyrazol-5-yl)-2-methylpropyl)-2-thia-6-azaspiro[3.4]octane 2,2-dioxide] | 3 | 187 | 14 | – |
| C[C@H](Cc1ccc(C(F)F)cc1)CN1CCC2(C1)CS(=O)(=O)C2 (single isomer, unassigned) [Compound 128B] | 4.8 | 25.7 | 45 | – |
| C[C@H](Cc1cnc(C(F)(F)F)nc1)CN1CCC2(C1)CS(=O)(=O)C2 (single isomer, unassigned) [Compound 145B] | 55 | 106 | 100 | – |
| C[C@@H](Cc1cnn(CC(F)(F)F)c1)CN1CCC2(C1)CS(=O)(=O)C2 (single isomer, unassigned) [Compound 154A] | 200 | 176 | 59 | – |
| C[C@H](Cc1cnn(CC(F)(F)F)c1)CN1CCC2(C1)CS(=O)(=O)C2 (single isomer, unassigned) [Compound 154B] | 250 | 143 | 53 | – |
| CC(C)(CN1CCC2(C1)CS(=O)(=O)C2)Oc1ccc(F)cc1 [Example 132, 6-(2-(4-Fluorophenoxy)-2-methylpropyl)-2-thia-6-azaspiro[3.4]octane 2,2-dioxide] | 7.2 | 14.7 | 26 | – |
| CC(C)(CN1CCC2(C1)CS(=O)(=O)C2)Oc1ccccc1F [Example 133, 6-(2-(2-Fluorophenoxy)-2-methylpropyl)-2-thia-6-azaspiro[3.4]octane 2,2-dioxide] | 72 | 86.6 | 89 | – |
| CC(C)(CN1CCC2(CC1)CS(=O)(=O)C2)Oc1ccc(C(F)(F)F)c(F)c1 [Example 208, 7-(2-(3-Fluoro-4-(trifluoromethyl)phenoxy)-2-methylpropyl)-2-thia-7-azaspiro[3.5]nonane 2,2-dioxide] | 0.69 | 12.8 | – | 1.52 |
| CC(C)(CN1CC2(CCS(=O)(=O)CC2)C1)Oc1ccc(C(F)(F)F)cc1 [Example 209, 2-(2-Methyl-2-(4-(trifluoromethyl)phenoxy)propyl)-7-thia-2-azaspiro[3.5]nonane 7,7-dioxide] | 9.9 | 13.9 | – | 45 |
| O=S1(=O)CC2(CCN(CCOc3cncc(F)c3)CC2)C1 [Example 210, 7-(2-((5-Fluoropyridin-3-yl)oxy)ethyl)-2-thia-7-azaspiro[3.5]nonane 2,2-dioxide] | 52 | 504 | – | 282 |
